Laboratory results reported in ChEMBL document CHEMBL2417420, “Autotaxin inhibition: development and application of computational tools to identify site-selective lead compounds” (Bioorg Med Chem, 2013).
pEC50, pIC50, pKi: −log10 of the molar value. Values belong to the compound of their own block, whether it stands above or below them. Activity calls are given as the source filed them. No cut-off for these calls is given here.

What was measured:
A2058 [1] = assay: Cytotoxicity against human A2058 cells assessed as reduction of cell number at 30 uM after 24 hrs by MTS assay; format: functional
Autotaxin [2] = molecular target: T1, Autotaxin (Homo sapiens, UniProt Q13822); assay: Activation of C-terminal FLAG-tagged human recombinant autotaxin using paranitrophenyl thymidine monophosphate as substrate measured every 2 mins by […] assay
Autotaxin [3] = molecular target: T1, Autotaxin; assay: Competitive inhibition of C-terminal FLAG-tagged human recombinant autotaxin using synthetic substrate FS-3 by Michaelis-Menten equation analysis
Autotaxin [4] = molecular target: T1, Autotaxin; assay: Inhibition of C-terminal FLAG-tagged human recombinant autotaxin using synthetic substrate FS-3 measured every 2 mins by FRET assay
Autotaxin [5] = molecular target: T1, Autotaxin; assay: Inhibition of C-terminal FLAG-tagged human recombinant autotaxin using synthetic substrate FS-3 at 10 uM measured every 2 mins by FRET assay relative to control
A2058 [6] = assay: Reduction of autotaxin and lysophosphatidyl choline-induced cell migration in human A2058 cells at 30 uM after 4 to 48 hrs by monolayer scratch assay; format: functional; design: scale not given: the % may be the effect or the level left
A2058 [7] = assay: Reduction of autotaxin-induced cell migration in human A2058 cells at 30 uM after 4 to 48 hrs by monolayer scratch assay; format: functional; design: scale not given: the % may be the effect or the level left
A2058 [8] = assay: Reduction of lysophosphatidyl choline-induced cell migration in human A2058 cells at 30 uM after 4 to 48 hrs by monolayer scratch assay; format: functional; design: scale not given: the % may be the effect or the level left
A2058 [9] = assay: Reduction of cell migration in human A2058 cells at 30 uM after 4 to 48 hrs by monolayer scratch assay; format: functional; design: scale not given: the % may be the effect or the level left
Autotaxin [10] = molecular target: T1, Autotaxin; assay: Inhibition of C-terminal FLAG-tagged human recombinant autotaxin using paranitrophenyl thymidine monophosphate as substrate at 10 uM measured every 2 mins by […] assay relative to control
Autotaxin [11] = molecular target: T1, Autotaxin; assay: Activation of C-terminal FLAG-tagged human recombinant autotaxin using paranitrophenyl thymidine monophosphate as substrate at 10 uM measured every 2 mins by […] assay
A2058 [12] = assay: Reduction of lysophosphatidic acid-induced cell migration in human A2058 cells at 30 uM after 4 to 48 hrs by monolayer scratch assay; format: functional; design: scale not given: the % may be the effect or the level left
A2058 [13] = assay: Cytotoxicity against human A2058 cells assessed as reduction lysophosphatidic acid-induced of cell proliferation at 30 uM after 24 hrs by MTS assay; format: functional; design: scale not given: the % may be the effect or the level left
A2058 [14] = assay: Cytotoxicity against human A2058 cells assessed as reduction lysophosphatidyl choline and autotaxin-induced of cell proliferation at 30 uM after 24 hrs by MTS assay; format: functional; design: scale not given: the % may be the effect or the level left
A2058 [15] = assay: Cytotoxicity against human A2058 cells assessed as reduction autotaxin-induced of cell proliferation at 30 uM after 24 hrs by MTS assay; format: functional; design: scale not given: the % may be the effect or the level left
A2058 [16] = assay: Cytotoxicity against human A2058 cells assessed as reduction lysophosphatidyl choline-induced of cell proliferation at 30 uM after 24 hrs by MTS assay; format: functional; design: scale not given: the % may be the effect or the level left

pEC50 (Autotaxin [2]): 5.37
pKi (Autotaxin [3]): 6.10
pIC50 (Autotaxin [4]): 6.10
inhibition (Autotaxin [5]): 87.3%
SMILES: CC(C)Cc1ccc(C(C)C(=O)N2CCC(CCCC3CCN(c4ccc(C(=O)NC(C(N)=O)C(C)O)cn4)CC3)CC2)cc1 (stereo not drawn)
Activity (A2058 [1]): Active

inhibition (Autotaxin [10]): 29.3%
pKi (Autotaxin [3]): 5.80
pIC50 (Autotaxin [4]): 5.92
inhibition (Autotaxin [5]): 88.5%
SMILES: CC(C)c1ccc(OCC(=O)N2CCN(c3ccc(C(=O)N4CCCC4C(N)=O)cn3)CC2C)cc1 (stereo not drawn)
Activity (A2058 [6]): 16%
Activity (A2058 [7]): 19%
Activity (A2058 [8]): 35%
Activity (A2058 [9]): 43%
Activity (A2058 [1]): inactive

Activity (Autotaxin [11]): Active
SMILES: CCOC(=O)C1=C(C)N=c2s/c(=C/c3cccc(OC)c3O)c(=O)n2[C@@H]1c1ccccc1

pEC50 (Autotaxin [2]): 5.55
pKi (Autotaxin [3]): 7.00
pIC50 (Autotaxin [4]): 6.10
inhibition (Autotaxin [5]): 90.5%
SMILES: CC1CCC(C(C)C)C(OCC(=O)N2CCC(CCCC3CCN(c4ccc(C(=O)N5CCCC5C(N)=O)cc4)CC3)CC2)C1 (stereo not drawn)
Activity (A2058 [1]): Active

Activity (Autotaxin [11]): Active
SMILES: COc1cc(/C=C2/SC(=S)N(Cc3ccccc3)C2=O)ccc1OC(=O)c1ccco1

pIC50 (Autotaxin [4]): 5.96
inhibition (Autotaxin [5]): 63.8%
SMILES: COc1cc(CCNC(=O)c2ccc3c(c2)nc(-c2cccc4ccccc24)n3CCc2ccc(OC)c(OC)c2)cc(OC)c1

Activity (Autotaxin [11]): Active
SMILES: O=C(Cn1c(=O)sc2cccc(Cl)c21)OCc1cccc(Oc2ccccc2)c1

Activity (Autotaxin [11]): Active
SMILES: CCOc1cc(/C=C2/SC(=S)N(Cc3ccccc3)C2=O)ccc1OC(=O)c1ccc(F)cc1

pIC50 (Autotaxin [4]): 5.62
inhibition (Autotaxin [5]): 93.7%
SMILES: O=C(O)c1ccccc1-c1ccc(/C=C2/SC(=S)N(Cc3ccccc3)C2=O)o1

Activity (Autotaxin [11]): Active
SMILES: COc1ccc(Cl)cc1NC(=O)CSC1=C(C#N)C(c2ccc(OC)c(OC)c2)CC(=O)N1 (stereo not drawn)

Activity (Autotaxin [11]): Active
SMILES: O=C(O)c1cc(-c2ccc(/C=C3\S/C(=N\c4ccccc4)N(Cc4ccccc4)C3=O)o2)ccc1Cl

pKi (Autotaxin [3]): 5.01
pIC50 (Autotaxin [4]): 5.42
inhibition (Autotaxin [5]): 68.6%
SMILES: COc1cc(C2CC(=O)NC(SCC(=O)Nc3ccc(Br)cc3)=C2C#N)ccc1O (stereo not drawn)
Activity (A2058 [6]): 60%
Activity (A2058 [7]): 61%
Activity (A2058 [8]): 59%
Activity (A2058 [12]): 57%
Activity (A2058 [9]): 60%
Activity (A2058 [13]): 28%

Activity (Autotaxin [11]): Active
SMILES: COc1ccc(OCCNC(=S)Nc2ccc(-c3ccccc3)cc2)cc1

pIC50 (Autotaxin [4]): 5.36
inhibition (Autotaxin [5]): 68.8%
SMILES: O=C(O)c1ccc(-c2ccc(/C=C3/SC(=O)N(Cc4ccc(F)cc4)C3=O)o2)cc1

pIC50 (Autotaxin [4]): 5.31
inhibition (Autotaxin [5]): 61.5%
SMILES: CCCc1ccc(S(=O)(=O)Oc2ccccc2-c2cc(CC)n(CCN3CCCCC3)n2)cc1

Activity (Autotaxin [11]): Active
SMILES: COc1cc(/C=c2/sc3nc4ccccc4n3c2=O)cc(Br)c1OCc1ccccc1Cl

Activity (Autotaxin [11]): Active
SMILES: CCCSC1=C(C#N)C(c2cc(Br)c(O)c(OC)c2)CC(=O)N1 (stereo not drawn)

inhibition (Autotaxin [10]): 10.6%
pKi (Autotaxin [3]): 5.80
pIC50 (Autotaxin [4]): 6.00
inhibition (Autotaxin [5]): 64.7%
SMILES: CC1CN(c2ccc(C(=O)N3CCCC3C(N)=O)cn2)CCC1C(=O)COc1cccc2ccccc12 (stereo not drawn)
Activity (A2058 [6]): 25%
Activity (A2058 [7]): 34%
Activity (A2058 [8]): 24%
Activity (A2058 [12]): 30%
Activity (A2058 [9]): 39%
Activity (A2058 [14]): 27%
Activity (A2058 [15]): 36%
Activity (A2058 [16]): 36%
Activity (A2058 [13]): 44%
Activity (A2058 [1]): 49%

pKi (Autotaxin [3]): 4.75
pIC50 (Autotaxin [4]): 6.05
inhibition (Autotaxin [5]): 83.2%
SMILES: Cc1cc(C)cc(CC(=O)N2CCC(CCCC3CCN(c4ccc(C(=O)NC(C(N)=O)C(C)O)cn4)CC3)CC2)c1 (stereo not drawn)
Activity (A2058 [9]): inactive
Activity (A2058 [1]): inactive

pKi (Autotaxin [3]): 6.30
pIC50 (Autotaxin [4]): 6.05
inhibition (Autotaxin [5]): 87.4%
SMILES: CC(O)C(NC(=O)c1ccc(N2CCC(CCCC3CCN(C(=O)CCC(=O)c4ccccc4)CC3)CC2)nc1)C(N)=O (stereo not drawn)
Activity (A2058 [6]): 38%
Activity (A2058 [7]): 33%
Activity (A2058 [8]): 28%
Activity (A2058 [12]): 22%
Activity (A2058 [15]): 30%
Activity (A2058 [13]): 27%

Activity (Autotaxin [11]): Active
SMILES: COC(=O)C1C(=O)NC(SCC(=O)Nc2ccc(C)cc2Br)=C(C#N)C1c1ccc(OC)cc1 (stereo not drawn)

Activity (Autotaxin [11]): Active
SMILES: CCOC(=O)C1=C(C)N=c2s/c(=C/c3ccc(O)c(OC)c3)c(=O)n2[C@H]1c1cccc2ccccc12

Activity (Autotaxin [11]): Active
SMILES: CC(O)C(NC(=O)c1ccc(N2CCN(C(=O)Cc3cccc4ccccc34)CC2)nc1)C(N)=O (stereo not drawn)

Activity (Autotaxin [11]): Active
SMILES: COc1cc(/C=C2/SC(=S)N(Cc3ccccc3)C2=O)ccc1OC(=O)c1ccc(F)cc1

pIC50 (Autotaxin [4]): 5.21
inhibition (Autotaxin [5]): 62.3%
SMILES: CC(C)C1C(=O)Nc2cc(S(=O)(=O)NCc3ccccc3)ccc2N1C(=O)CN1CCCCC1 (stereo not drawn)

Activity (Autotaxin [11]): Active
SMILES: CC(=O)Nc1ccc(S(=O)(=O)N/N=C/c2ccc(OCc3ccccc3)cc2)cc1

pEC50 (Autotaxin [2]): 5.35
pKi (Autotaxin [3]): 6.70
pIC50 (Autotaxin [4]): 6.05
inhibition (Autotaxin [5]): 85.3%
SMILES: CC(O)C(NC(=O)c1ccc(N2CCC(CCCC3CCN(C(=O)Cc4ccc(-c5ccccc5)cc4)CC3)CC2)nc1)C(N)=O (stereo not drawn)
Activity (A2058 [1]): Active

inhibition (Autotaxin [5]): 10%
SMILES: COc1cccc(CNC2CC(=O)N(c3ccc(N4C(=O)CC(NCc5cccc(OC)c5OC)C4=O)cc3)C2=O)c1OC (stereo not drawn)

inhibition (Autotaxin [5]): 0%
SMILES: O=C(O)c1cccc(/N=C2\S/C(=C\c3ccc(-c4cccc(Cl)c4)o3)C(=O)N2Cc2ccccc2)c1

inhibition (Autotaxin [5]): 20%
SMILES: O=C(N/N=C/c1cc(Br)c(O)c(O)c1Br)/C(=C\c1ccc([N+](=O)[O-])cc1)NC(=O)c1ccccc1
